{"source": "patent US11299496B2", "about": "“Ligands for alpha-7 nicotinic acetylcholine receptors and methods of treating neurological and inflammatory conditions” (Northeastern University, priority 2014, dated 2022)", "molecular_target": "T1, human alpha-7 nAChR (Homo sapiens, UniProt P36544)", "T1 construct": "expressed in transfected cells; host or cells: Xenopus laevis oocytes (cRNA injection)", "T1 sequence (P36544 23-502)": "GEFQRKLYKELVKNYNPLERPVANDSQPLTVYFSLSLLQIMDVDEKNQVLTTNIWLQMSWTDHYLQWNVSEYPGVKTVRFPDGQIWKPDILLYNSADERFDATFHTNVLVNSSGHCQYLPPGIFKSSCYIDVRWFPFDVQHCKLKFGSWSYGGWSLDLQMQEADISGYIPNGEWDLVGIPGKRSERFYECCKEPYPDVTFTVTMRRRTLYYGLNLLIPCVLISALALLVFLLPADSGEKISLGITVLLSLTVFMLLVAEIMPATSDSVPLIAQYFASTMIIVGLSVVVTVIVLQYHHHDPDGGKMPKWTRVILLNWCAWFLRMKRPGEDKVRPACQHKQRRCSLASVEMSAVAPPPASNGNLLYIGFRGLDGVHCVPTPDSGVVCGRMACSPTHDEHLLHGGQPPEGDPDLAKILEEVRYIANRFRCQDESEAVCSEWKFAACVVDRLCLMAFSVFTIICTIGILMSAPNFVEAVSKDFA", "assay": "Two-electrode voltage clamp of alpha-7 nAChR expressed in Xenopus oocytes (net charge)", "format": "cell-based", "in_short": "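Human α7 nAChR co-expressed with RIC-3 in Xenopus oocytes; two-electrode clamp at −60 mV, 12 s applications in Ringer's pH 7.3. Net charge integrated over 120 s from application, normalized to prior ACh controls; measured for compound alone and with choline or ACh; n≥4 oocytes.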"}
{"molecule": "NS(=O)(=O)c1ccc2c(c1)[C@H]1C=CC[C@H]1[C@@H](c1ccc(Br)cc1)N2", "note": "[Compound 1, (3aR,4S,9bS)-4-(4-bromophenyl)-3a,4,5,9b-tetrahydro-3H-cyclopenta[c]quinoline-8-sulfonamide]", "values": [{"measurement": "Charge Alone", "setting": "compound alone acting as an allosteric agonist, area under the curve of current vs. time", "result": 450}, {"measurement": "Charge +C", "setting": "compound together with choline or ACh, includes PAM and ago-PAM activity, area under the curve of current vs. time", "result": 1700}, {"measurement": "activity of separated enantiomer vs racemate 4BP-TQS", "setting": "enantioseparation and electrophysiological characterization", "result": "all the activity of the racemate of 4BP-TQS lies in one enantiomer"}]}
